# According to PubChem BioAssay AID248 (DTP/NCI, 2004):
# Values joined by “and” are separate entries in the source; they are usually repeats but may differ in a detail not shown here. Equal entries are not always repeated. Toxic doses and inconclusive results are not listed.
# Tested on: L1210 leukemia ip in BDF1 mice, survival T/C
# Test: NCI In Vivo Anticancer Drug Screen. Data for tumor model L1210 Leukemia (intraperitoneal) in B6D2F1 (BDF1) mice
# Conditions: endpoint: mean survival time, higher = longer survival
# In short: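 Mice bearing the transplanted tumor received compound or vehicle. Survival of the treated group was divided by that of the vehicle-treated control group to give the ratio.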
# [1] = dose: 75.0 mg/kg/injection, schedule: Q01DX001 (ip), vehicle: carboxymethylcellulose (CMC)
# [2] = dose: 300.0 mg/kg/injection, schedule: Q01DX001 (ip), vehicle: carboxymethylcellulose (CMC)
# [3] = dose: 100.0 mg/kg/injection, schedule: Q01DX009 (ip), vehicle: saline with Tween-80
# [4] = dose: 200.0 mg/kg/injection, schedule: Q01DX009 (ip), vehicle: saline with Tween-80
# [5] = dose: 100.0 mg/kg/injection, schedule: Q04DX003 (ip), vehicle: saline with Tween-80
# [6] = dose: 200.0 mg/kg/injection, schedule: Q04DX003 (ip), vehicle: saline with Tween-80
# [7] = dose: 400.0 mg/kg/injection, schedule: Q01DX009 (ip), vehicle: saline with Tween-80
# [8] = dose: 400.0 mg/kg/injection, schedule: Q04DX003 (ip), vehicle: saline with Tween-80
# [9] = dose: 100.0 mg/kg/injection, schedule: Q04DX002 (ip), vehicle: Klucel (hydroxypropylcellulose) (HPC)
# [10] = dose: 200.0 mg/kg/injection, schedule: Q04DX002 (ip), vehicle: Klucel (hydroxypropylcellulose) (HPC)
# [11] = dose: 400.0 mg/kg/injection, schedule: Q04DX002 (ip), vehicle: Klucel (hydroxypropylcellulose) (HPC)
# [12] = dose: 100.0 mg/kg/injection, schedule: Q01DX009 (ip), vehicle: Klucel (hydroxypropylcellulose) (HPC)
# [13] = dose: 100.0 mg/kg/injection, schedule: Q04DX003 (ip), vehicle: Klucel (hydroxypropylcellulose) (HPC)
# [14] = dose: 200.0 mg/kg/injection, schedule: Q01DX009 (ip), vehicle: Klucel (hydroxypropylcellulose) (HPC)
# [15] = dose: 200.0 mg/kg/injection, schedule: Q04DX003 (ip), vehicle: Klucel (hydroxypropylcellulose) (HPC)
# [16] = dose: 400.0 mg/kg/injection, schedule: Q04DX003 (ip), vehicle: Klucel (hydroxypropylcellulose) (HPC)
# [17] = dose: 400.0 mg/kg/injection, schedule: Q01DX009 (ip), vehicle: Klucel (hydroxypropylcellulose) (HPC)
structure (smiles),measurement,setting,value
CC(C)CSC(SCC(C)C)C(O)C(O)C(O)CO (stereo not drawn),T/C,[1],98 % of control
same,T/C,"dose: 150.0 mg/kg/injection, schedule: Q01DX001 (ip), vehicle: carboxymethylcellulose (CMC)",109 % of control
same,T/C,[2],97 % of control
NP(=O)(OCCCOCc1ccccc1)N(CCCl)CCCl (stereo not drawn),T/C,"dose: 125.0 mg/kg/injection, schedule: Q01DX001 (ip), vehicle: saline",103 % of control
same,T/C,"dose: 250.0 mg/kg/injection, schedule: Q01DX001 (ip), vehicle: saline",108 % of control
same,T/C,"dose: 500.0 mg/kg/injection, schedule: Q01DX001 (ip), vehicle: saline",100 % of control
Fc1cc(F)c(F)c(Nc2c(F)c(F)c(Br)c(F)c2F)c1F,T/C,"dose: 25.6 mg/kg/injection, schedule: Q04DX002 (ip), vehicle: saline with Tween-80",92 % of control
same,T/C,"dose: 64.0 mg/kg/injection, schedule: Q04DX002 (ip), vehicle: saline with Tween-80",103 % of control
same,T/C,"dose: 160.0 mg/kg/injection, schedule: Q04DX002 (ip), vehicle: saline with Tween-80",92 % of control
same,T/C,"dose: 400.0 mg/kg/injection, schedule: Q04DX002 (ip), vehicle: saline with Tween-80",95 % of control
C[CH2][Ge]1([CH2]C)[CH2]CC2(C[CH2]1)CN(CCCN(C)C)CN2,T/C,"dose: 100.0 mg/kg/injection, schedule: Q04DX002 (ip), vehicle: saline",103 % of control
CC(=O)OC1CCCC2=C(C)C(=O)CCC21C (stereo not drawn),T/C,"dose: 50.0 mg/kg/injection, schedule: Q01DX009 (ip), vehicle: saline with Tween-80",100 % of control
same,T/C,[3],118 % of control
same,T/C,[4],94 % of control
N#CC(C#N)C1c2ccccc2C([N+](=O)[O-])c2ccccc21 (stereo not drawn),T/C,[3],103 % of control
same,T/C,[5],88 % of control
same,T/C,[4],96 % of control
same,T/C,[6],93 % of control
same,T/C,[7],98 % of control
same,T/C,[8],101 % of control
O=C(CCCc1ccc(N(CCCl)CCCl)cc1)NCc1ccc(N(CCCl)CCCl)cc1,T/C,"dose: 4.0 mg/kg/injection, schedule: Q12HX018 (sc), vehicle: other",103 % of control
same,T/C,"dose: 6.0 mg/kg/injection, schedule: Q12HX018 (sc), vehicle: other",103 % of control
same,T/C,"dose: 8.0 mg/kg/injection, schedule: Q12HX018 (sc), vehicle: other",100 % of control
N#Cc1ccc2c(c1)C([P+](c1ccccc1)(c1ccccc1)c1ccccc1)c1ccccc1-2 (stereo not drawn),T/C,[1],88 % of control
same,T/C,[2],92 % of control
CCOC=NC1=C(C#N)CN(Cc2ccccc2)CC1,T/C,[9],93 % of control
same,T/C,[10],93 % of control
same,T/C,[11],90 % of control
CC(O)/C(=N/Nc1ccc([N+](=O)[O-])cc1[N+](=O)[O-])C(=O)O (stereo not drawn),T/C,"dose: 50.0 mg/kg/injection, schedule: Q01DX009 (ip), vehicle: Klucel (hydroxypropylcellulose) (HPC)",106 % of control
same,T/C,[12],96 % of control
same,T/C,[13],91 % of control
same,T/C,[14],96 % of control
same,T/C,[15],88 % of control
CC1(C)C2CC3C(=CCC4C(=O)C=CC(=O)C43)C1C2 (stereo not drawn),T/C,[13],95 % of control
same,T/C,[15],93 % of control
same,T/C,[16],95 % of control
CC(=O)[C@H]1CC[C@H]2[C@@H]3CCC4=CC(=O)[C@H](C)C[C@]4(C)[C@@]3(F)C(=O)C[C@]12C,T/C,"dose: 15.0 mg/kg/injection, schedule: Q01DX Z (sc), vehicle: steriod suspending solution",98 % of control
same,T/C,"dose: 30.0 mg/kg/injection, schedule: Q01DX Z (sc), vehicle: steriod suspending solution",96 % of control
same,T/C,"dose: 60.0 mg/kg/injection, schedule: Q01DX Z (sc), vehicle: steriod suspending solution",101 % of control and 113 % of control
same,T/C,"dose: 100.0 mg/kg/injection, schedule: Q01DX009 (sc), vehicle: steriod suspending solution",116 % of control
same,T/C,"dose: 100.0 mg/kg/injection, schedule: Q04DX003 (sc), vehicle: steriod suspending solution",98 % of control
same,T/C,"dose: 120.0 mg/kg/injection, schedule: Q01DX Z (sc), vehicle: steriod suspending solution",105 % of control
same,T/C,"dose: 200.0 mg/kg/injection, schedule: Q01DX009 (sc), vehicle: steriod suspending solution",110 % of control
same,T/C,"dose: 200.0 mg/kg/injection, schedule: Q04DX003 (sc), vehicle: steriod suspending solution",98 % of control
same,T/C,"dose: 240.0 mg/kg/injection, schedule: Q01DX Z (sc), vehicle: steriod suspending solution",103 % of control
same,T/C,"dose: 400.0 mg/kg/injection, schedule: Q01DX009 (sc), vehicle: steriod suspending solution",111 % of control
same,T/C,"dose: 400.0 mg/kg/injection, schedule: Q04DX003 (sc), vehicle: steriod suspending solution",98 % of control
O=C1c2ccccc2C(=O)N1CC(O)COc1ccc(Cl)cc1 (stereo not drawn),T/C,[13],92 % of control
same,T/C,[15],92 % of control
same,T/C,[16],91 % of control
COc1ccc(C)cc1NC(=O)/C=C/c1ccccc1,T/C,[9],100 % of control
same,T/C,[10],100 % of control
same,T/C,[11],100 % of control
CC1(C)C(C#N)C(=O)N(Cc2ccccc2)C(=O)C1C#N (stereo not drawn),T/C,[5],101 % of control
same,T/C,[6],93 % of control
COC1CCCCC1Br (stereo not drawn),T/C,[12],104 % of control
same,T/C,[14],98 % of control
same,T/C,[17],98 % of control
O=C(NCc1cnccn1)OCC(Cl)(Cl)Cl,T/C,[3],97 % of control
same,T/C,[4],106 % of control
same,T/C,[7],103 % of control
CCOc1ccc(/C=N/NC(=S)NC23CC4CC(CC(C4)C2)C3)cc1OCC,T/C,"dose: 75.0 mg/kg/injection, schedule: Q01DX001 (ip), vehicle: saline",94 % of control
same,T/C,"dose: 150.0 mg/kg/injection, schedule: Q01DX001 (ip), vehicle: saline",95 % of control
same,T/C,"dose: 300.0 mg/kg/injection, schedule: Q01DX001 (ip), vehicle: saline",94 % of control
CCCCS.[Pb],T/C,[5],95 % of control
same,T/C,[6],95 % of control
same,T/C,[8],96 % of control
FC1C(F)(F)C(F)(F)C(F)(F)C(F)(F)C1(F)F,T/C,"dose: 50.0 mg/kg/injection, schedule: Q01DX001 (ip), vehicle: carboxymethylcellulose (CMC)",97 % of control
same,T/C,"dose: 100.0 mg/kg/injection, schedule: Q01DX001 (ip), vehicle: carboxymethylcellulose (CMC)",97 % of control
same,T/C,"dose: 200.0 mg/kg/injection, schedule: Q01DX001 (ip), vehicle: carboxymethylcellulose (CMC)",107 % of control
same,T/C,"dose: 400.0 mg/kg/injection, schedule: Q01DX001 (ip), vehicle: carboxymethylcellulose (CMC)",96 % of control
O=C(Nc1ccccc1)c1ccc(C(F)(F)F)cc1O,T/C,"dose: 100.0 mg/kg/injection, schedule: Q04DX002 (ip), vehicle: saline with Tween-80",105 % of control
same,T/C,"dose: 200.0 mg/kg/injection, schedule: Q04DX002 (ip), vehicle: saline with Tween-80",103 % of control
N#C/C(=C\c1ccc(Cl)cc1)c1cccc2ccccc12,T/C,[12],92 % of control
same,T/C,[14],92 % of control
same,T/C,[17],90 % of control
CC(=O)c1c(C)cc2cc(C)cc(O)c2c1O,T/C,[13],97 % of control
same,T/C,[15],101 % of control
same,T/C,[16],101 % of control
CCOC(CNC(=O)c1cccc(S(=O)(=O)F)c1)OCC,T/C,"dose: 100.0 mg/kg/injection, schedule: Q04DX003 (ip), vehicle: saline + alcohol",98 % of control
same,T/C,"dose: 200.0 mg/kg/injection, schedule: Q04DX003 (ip), vehicle: saline + alcohol",96 % of control
NC(=O)c1cc([N+](=O)[O-])ccc1N=NN(CCCl)CCCl,T/C,[5],114 % of control
same,T/C,"dose: 177.0 mg/kg/injection, schedule: Q04DX003 (ip), vehicle: saline with Tween-80",111 % of control
same,T/C,[4],107 % of control
same,T/C,"dose: 266.0 mg/kg/injection, schedule: Q04DX003 (ip), vehicle: saline with Tween-80",114 % of control
same,T/C,[8],165 % of control
O=C(/C=C\c1ccccc1)N1CCc2ccccc2C1,T/C,"dose: 75.0 mg/kg/injection, schedule: Q04DX003 (ip), vehicle: saline",100 % of control
same,T/C,"dose: 300.0 mg/kg/injection, schedule: Q04DX003 (ip), vehicle: saline",101 % of control
